According to article PMC9966268, “Genotoxicity of Novel Pyrazolo[4,3-e]tetrazolo[1,5-b][1,2,4]triazine Sulfonamides in Normal and Cancer Cells In Vitro” (International Journal of Molecular Sciences, 2023):

How the values were obtained:
[1] = tested on: PC-3; assay: Neutral comet assay; assay type: cell-based, human; settings: 24 h
Experimental: (§1) The majority of the neutral comet assay steps were performed analogously to the alkaline version except for the electrophoresis step. In contrast to the alkaline comet assay, electrophoresis was performed in a buffer comprising 100 mM TRIS and 300 mM sodium acetate with the pH of the solution adjusted to 9.0 by glacial acetic acid, as described previously by Bukowski et al.. Electrophoresis was run at 12 V, 50 mA for 60 min. Cells were washed with distilled water twice, stained with DAPI, and analyzed as described for the alkaline comet assay.
(§2) […] This parameter provides a very clear picture of what the actual appearance of the comets was like. […] The data were presented with an interquartile range and minimal and maximal values using Graphpad Prism 7. Statistical analysis of comet assay results was performed using Statistica software. The Kruskal–Wallis test was used to show a statistically significant difference between groups. Multiple comparisons using mean ranks for all groups module of Statistica software were used. A p-value less than 0.05 was considered statistically significant. In all groups, N > 200.

[2] = Alamar blue assay; assay type: cell-based; settings: human
Experimental: Alamar blue works as a non-toxic and membrane-permeable redox indicator that is often used to assess the metabolic activity of cells. Over the past 50 years, the alamar blue reagent has been used to measure cell viability and cytotoxicity in a variety of cell types. In this study, alamar blue (BioRAD) was used to assess cell viability before the performance of the neutral comet assay. Nunc microtiter, flat-bottomed 96-well plates were seeded at a density of approximately 1 × 10^4 cells per 100 µL medium per well. Following the given incubation period in controlled conditions (37 °C; 5% CO2), cells were exposed to 11 different concentrations of tested compounds in DMSO (range 0.05–3 µM) in a volume of 100 µL medium per well. The final solvent concentration was <0.5% v/v. The experimental design included negative controls and blanks (wells without cells).
Following a 24 h incubation period, 20 µL of alamar blue was added to each well of the experimental plate. Cells were incubated in a humidified atmosphere for 4 h (37 °C; 5% CO2). The absorbance reading was performed at 570 and 600 nm using a spectrophotometer (microplate reader Power Wave XS BioTek Instruments, Inc., USA). The experiments were performed in triplicate.
The percentage difference between treated and control cells was calculated using the formula provided by the producer (BioRad). (1) Percentage difference between treated and control cells=O2×A1 −O1×A2 /O2×P1−O1×P2×100

[3] = tested on: PC-3; set-up: method as in PMID 35682571; settings: PC-3, 72 h incubation, MTT assay, mean; read-out: IC50 Value ± SD; cited from earlier work
[4] = tested on: PC-3; assay: Alkaline comet assay; assay type: cell-based, human; settings: PC-3, alkaline, 24 h
Experimental: (§3) The alkaline version of the comet assay was performed according to Singh et al. (1988), with modifications. BxPC-3 and PC-3 cancer cells and normal human fibroblasts (WI-38) were seeded at a density of 1.2 × 10^5/mL onto 12-well plates. […] The experimental design included negative controls (cells treated with DMSO at 0.4% for 24 h at 37 °C). Cells were left for incubation for another 24 h (37 °C; 5% CO2). After exposure, they were transferred to Eppendorf tubes and centrifuged at 1400 rpm for 10 min at 4 °C. Afterward, the supernatant was removed, and the precipitate was diluted in PBS. The next steps were performed as previously described by Kontek and Nowicka.
(§4) After electrophoresis (conditions: 12 V, 300 mA, 25 min), slides were stained with 1 µg/mL of the intercalating agent 4′,6-diamidino-2-phenylindole (DAPI) and coverslipped. DNA damage was assessed with a fluorescence microscope at 360 nm using CellSens (Olympus) software. A total number of approximately 50 cells per slide was chosen for further analysis.
as §2

[5] = tested on: WI-38; assay: Alkaline comet assay; assay type: cell-based, human; settings: WI-38, alkaline; for mean tail DNA % / median tail DNA %: 24 h
Experimental: as §3, §4, §2

[6] = tested on: BxPC-3; assay: Alkaline comet assay; assay type: cell-based, human; settings: BxPC-3, alkaline, 24 h
Experimental: as §3, §4, §2

[7] = tested on: BxPC-3; set-up: method as in PMID 35682571; settings: BxPC-3, 72 h incubation, MTT assay, mean; read-out: IC50 Value ± SD; cited from earlier work
[8] = tested on: BxPC-3; assay: Neutral comet assay; assay type: cell-based, human; settings: 24 h
Experimental: as §1
CASP: Comet Assay Software Project Lab (http://casplab.com (accessed on 1 January 2023)) was used to establish the median value of DNA (%) in comet tails. This parameter provides a very clear picture of what the actual appearance of the comets was like. […] The data were presented with an interquartile range and minimal and maximal values using Graphpad Prism 7. Statistical analysis of comet assay results was performed using Statistica software. The Kruskal–Wallis test was used to show a statistically significant difference between groups. Multiple comparisons using mean ranks for all groups module of Statistica software were used. A p-value less than 0.05 was considered statistically significant. In all groups, N > 200.

[9] = tested on: PC-3; assay: γH2AX staining; assay type: cell-based, human; settings: PC-3, IC50 concentration, 24 h, foci per cell
Experimental: PC-3 cells were seeded at a density of 3 × 10^4/mL onto round coverslips placed on the bottom of 12-well plates. […] After 24 h, cells were washed once with cold PBS and placed in 4% paraformaldehyde (PHA) in PBS for 10 min. at room temperature. After that, PHA was removed, and cells were permeabilized using 0.1% Triton X-100 for 10 min at 20 °C, followed by incubation in a blocking solution (1 mL/well) containing 2.5% BSA, 1.5% goat serum, and 0.1% Triton X-100 in PBS for 10 min at room temperature. The blocking solution was removed, and coverslips containing cells were incubated with anti-γ-H2AX primary antibodies in blocking solution (anti-gamma-H2AX (phosphor-Ser139) (Abcam, Cambridge, UK; 1:100)) for 1 h at room temperature. Cells were transferred into 12-well plates, washed twice in PBS (5 min each), transferred to plates, and incubated with Goat anti-Mouse IgG Cross-adsorbed antibody, Alexa Fluor 488 (Invitrogen; 1:500 in PBS) for 1 h at room temperature. Cells were washed twice in PBS, followed by incubation with DAPI solution (1 µg/mL) for 10 min at room temperature and two washes in PBS and distilled water. Coverslips were removed using tweezers and placed on microscope slides with a drop of Fluoromount-G mounting medium. The slides were placed flat at room temperature for 24 h and then stored at 4 °C. The slides were analyzed with a fluorescence microscope using CellSens (Olympus) software. A total number of approximately 100 cells per slide was chosen for further analysis. The experiment was performed in duplicate. In BxPC-3 cells, inefficient or non-specific staining was observed despite attempts to optimize the assay. Therefore, we discontinued further work on these cells with the assay.
Images for green γ-H2AX (Alexa Fluor 488) and blue nuclear signals (DAPI) were taken using an Olympus camera. ImageJ software “find maxima” and “count” functions were used to determine the number of γ-H2AX foci in each cell. The “preview point selection” option and “prominence” were chosen based on the accuracy of coverage of γ-H2AX foci. Data were analyzed using GraphPad Prism 7.0 software system (GraphPad Prism Software Inc., USA) and Statistica software. The Kruskal–Wallis test was used to show a statistically significant difference between groups. Multiple comparisons using mean ranks for all groups module of Statistica software were used. A p-value less than 0.05 was considered statistically significant (p < 0.05). In all groups, N > 200.

[10] = tested on: PC-3; assay: Trypan blue staining; assay type: cell-based, human; settings: PC-3, 0.5, 1 and 2 × IC50, 24 h, 37 °C
Experimental: (§5) Trypan blue is a diazo dye that has been used for viability assessment for years. Viable cells with undamaged cellular membranes are resistant to staining and thus allow the discrimination from blue-stained dead cells with disrupted membranes. Cells were seeded at a density of 1.5 × 10^5/mL onto 12-well plates. […] Cells were left for incubation for another 24 h (37 °C; 5% CO2). After exposure, they were transferred to Eppendorf tubes and centrifuged at 1400 rpm for 10 min at 4 °C. Afterward, the supernatant was removed, and the precipitate was diluted in PBS. Cell suspensions were mixed with 0.4% trypan blue solution in a 1:1 ratio. Approximately 300 cells were counted under a light microscope. The experiment was repeated three times. The results were represented as mean viability (%) with SD values.

[11] = tested on: WI-38; assay: Trypan blue staining; assay type: cell-based, human; settings: WI-38, 0.5, 1 and 2 × IC50, 24 h, 37 °C
Experimental: as §5

[12] = tested on: BxPC-3; assay: Trypan blue staining; assay type: cell-based, human; settings: BxPC-3, 0.5, 1 and 2 × IC50, 24 h, 37 °C
Experimental: as §5

[13] = tested on: WI-38; set-up: method as in PMID 35682571; settings: WI-38 (head prints WI-28), 72 h incubation, MTT assay, mean; read-out: IC50 Value ± SD; cited from earlier work
[14] = tested on: BxPC-3 and PC-3 cancer cell lines; set-up: method as in PMID 35682571; settings: BxPC-3 and PC-3, 72 h MTT assay; read-out: IC50 (range over cancer cell lines); cited from earlier work
[15] = PC-3, neutral, positive control 20 µM
[16] = BxPC-3, neutral, positive control 20 µM

| Molecule | mean tail DNA % (double-strand breaks) ([1]; human) | median tail DNA % (double-strand breaks) ([1]; human) | mean tail DNA % ([4]; IC50 concentration) | median tail DNA % ([4]; IC50 concentration) | mean tail DNA % ([5]; IC50 concentration) | median tail DNA % ([5]; IC50 concentration) | mean tail DNA % ([6]; IC50 concentration) | median tail DNA % ([6]; IC50 concentration) | mean tail DNA % (double-strand breaks) ([8]; human) | median tail DNA % (double-strand breaks) ([8]; human) | mean number of γH2AX foci [9] | median number of γH2AX foci [9] | viability at 24 h, 3 µM ([2]; PC-3 cells, PC-3, 3 µM) | IC50 [3] | IC50 [7] | IC50 [13] | further results |
| --- | --- | --- | --- | --- | --- | --- | --- | --- | --- | --- | --- | --- | --- | --- | --- | --- | --- |
| Cc1nn(-c2ccc(S(=O)(=O)NCCN3CCOCC3)cc2)c2nn3nnnc3nc12 [MM134] | 5.72% | 4.09% | 7.37% | 1.03% | 4.19% | 1.5% | 10.9% | 2.5% | 5.11% | 4.21% | 25.8 | 21 | 55.8 ± 5.27% | 160 ± 20 nM | 320 ± 100 nM |  | DNA damage compared with negative and positive control (in words) ([5]; 0.5 × IC50, IC50, 2 × IC50, 24 h, p < 0.05): statistically significant increase in DNA damage; cell viability [10]: highest reduction in cell viability; cell viability [11]: highest reduction in cell viability; cell viability [12]: highest reduction in cell viability |
| bleomycin [reference compound] |  |  |  |  |  |  |  |  |  |  |  |  |  |  |  |  | mean tail DNA % (double-strand breaks) [1, 15]: 12.9%; median tail DNA % (double-strand breaks) [1, 15]: 10.4%; mean tail DNA % ([4]; positive control 20 µM): 22.07%; median tail DNA % ([4]; positive control 20 µM): 19.31%; mean tail DNA % ([5]; positive control 20 µM): 32.6%; median tail DNA % ([5]; positive control 20 µM): 29.13%; mean tail DNA % ([6]; positive control 20 µM): 48.3%; median tail DNA % ([6]; positive control 20 µM): 50.8%; mean tail DNA % (double-strand breaks) [8, 16]: 11.15%; median tail DNA % (double-strand breaks) [8, 16]: 9.7% |

Further lines, with some results ahead:

| mean tail DNA % (double-strand breaks) ([1]; human) | median tail DNA % (double-strand breaks) ([1]; human) | mean tail DNA % ([4]; IC50 concentration) | median tail DNA % ([4]; IC50 concentration) | mean tail DNA % ([5]; IC50 concentration) | median tail DNA % ([5]; IC50 concentration) | mean tail DNA % ([6]; IC50 concentration) | median tail DNA % ([6]; IC50 concentration) | mean tail DNA % (double-strand breaks) ([8]; human) | median tail DNA % (double-strand breaks) ([8]; human) | mean number of γH2AX foci [9] | median number of γH2AX foci [9] | Molecule | viability at 24 h, 3 µM ([2]; PC-3 cells, PC-3, 3 µM) | IC50 [3] | IC50 [7] | IC50 [13] | further results |
| --- | --- | --- | --- | --- | --- | --- | --- | --- | --- | --- | --- | --- | --- | --- | --- | --- | --- |
| 8% | 4.6% | 12.08% | 1.63% | 0.72% | 0.01% | 14.36% | 8.28% | 5.08% | 4.10% | 14.71 | 11 | Cc1nn(-c2ccc(S(=O)(=O)N3CCOCC3)cc2)c2nn3nnnc3nc12 [MM136] |  | 130 ± 10 nM | 250 ± 80 nM | 480 ± 90 nM |  |
| 4.45% | 2.82% | 11.05% | 2.32% | 1.26% | 0.09% | 12.07% | 3.28% |  |  | 17.52 | 15 | Cc1nn(-c2ccc(S(=O)(=O)N3CCN(C)CC3)cc2)c2nn3nnnc3nc12 [MM137] |  | 110 ± 7 nM | 160 ± 40 nM | 270 ± 40 nM |  |
| 6.07% | 5% | 14.22% | 3.35% | 2.97% | 0.085% | 10.85% | 4.74% | 4.86% | 3.72% | 15.37 | 12 | Cc1nn(-c2ccc(S(=O)(=O)N3CCCCC3)cc2)c2nn3nnnc3nc12 [MM139] | 88.4 ± 1.72% | 170 ± 3 nM | 330 ± 140 nM | 540 nM | viability at 24 h, 3 µM ([2]; BxPC-3 cells, BxPC-3, 3 µM): 75.3 ± 0.99%; IC50 [14]: 170 to 330 nM |
